Laboratory results reported in publication PMC7167990, “Therapeutic Effects of Atranorin towards the Proliferation of Babesia and Theileria Parasites” (Pathogens, 2020).
Each block holds one compound with its values, some of them ahead of it.

Columns and labels:
B. microti = B. microti in vivo; cited from earlier work
NIH/3T3 cells = test: Cytotoxicity assay (CCK-8 cell viability); format: cell-based, mouse
Protocol: (§1) Cultures of human foreskin fibroblast (HFF; HFF-1 ATCC® SCRC-1041™), Madin–Darby bovine kidney (MDBK; ECACC) and mouse embryonic fibroblast (NIH/3T3; ATCC® CRL-1658™) cells were retrieved from −80 °C stock and cultured continuously at 37 °C under atmosphere 5% CO2 in our laboratory. The NIH/3T3 and HFFs cells were maintained in Dulbecco Modified Eagle’s Medium (DMEM; Gibco, Grand Island, NY, USA), while MDBK cell line grown in Minimum Essential Medium Eagle (MEM; Gibco). Each medium was treated with 0.5% penicillin/streptomycin (Gibco), 10% inactivated fetal bovine serum and 2 mM glutamine. Every 72 to 96 h, the medium was replaced, and once 80% confluence was reached, the cell collection was performed by sub-culture protocol. To confirm the absence of mycoplasma contamination, 4,6-diamidino-2-phenylindole dihydrochloride stain (Sigma-Aldrich) was used.
(§2) The cell viability test was conducted in a 96-well plate as described elsewhere. Briefly, an aliquot of (100 µL) cells was implanted at a concentration of 5 × 10^4 cells/mL in DMEM or MEM with fetal bovine serum and incubated overnight under atmosphere 5% CO2 at 37 °C for attachment. Using two-fold dilutions, aliquots (10 µL) of drugs were added in triplicate per well to attain final concentrations of 50 to 1000 µM and further incubated for 24 h. The positive control wells containing cells mixed with the medium in 0.4% DMSO, whereas the negative control wells containing culture medium only. After a 24-h incubation, Cell Counting Kits-8 (CCK-8, 10 µL) was added to each well and then plate incubation was conducted for an additional 3 h and a microplate reader was used to assess the absorbance at 450 nm.

HFFs = test: Cytotoxicity assay (CCK-8 cell viability); format: cell-based, human
Protocol: as §1, §2

B. bovis = test: In vitro growth inhibition, Babesia fluorescent (SYBR Green I) assay; format: cell-based; details: Bos taurus, 96 h, 4 days culture, mean of triplicate experiments
Protocol: (§3) Babesia parasite was incubated and maintained at 37 °C in a humidifying chamber under 5% CO2, 5% O2, and 90% N2 atmosphere using a microaerophilic stationary-phase culture for conducting the in vitro experiment. Briefly, Germany strain Babesia divergens was cultured in cattle RBCs in Roswell Park Memorial Institute 1640 (RPMI 1640; Sigma-Aldrich, St. Louis, MO, USA) medium replenished with 40% cattle serum, while culture medium 199 (M199; Sigma-Aldrich) was utilized for the Argentina strain B. bigemina and Texas strain B. bovis, and T. equi USDA strain cultured in cattle RBCs supplemented with 40% cattle serum and horse RBCs maintained in hypoxanthine (MP Biomedicals, Santa Ana, CA, USA; final concentration 13.6 μg/mL) and 40% horse serum, respectively. GIT medium complemented with 40% horse serum was used as a growth medium for the USDA strain of B. caballi cultured in horse RBCs. To ensure free-bacterial contamination, amphotericin B (0.15 μg/mL) (Sigma-Aldrich), streptomycin (60 U/mL) and penicillin G (60 U/mL) were added to all medium.
(§4) The Babesia fluorescent assay was carried out on the in vitro culture as previously reported elsewhere to assess the growth of the inhibitory effectiveness of ATR and the combination treatment with DA, CF, and AV. Briefly, in three separate trials, using two-fold dilution, different concentrations of ATR, DA, CF, and AV were prepared in the culture medium and added in 96-well plates in triplicate with 1% parasitemia for T. equi, B. divergens and B. caballi at 5% HCT, while for B. bigemina and B. bovis using 2.5% HCT. The drug combined efficacy was conducted at the same time with the single-treatment assay in accordance with the Chou–Talalay method. […] On day four of culture, an aliquot (100 µL) of lysis buffer mixed with 0.2μL/mL SG1 was added per well; subsequently, it was covered with aluminum foil to prevent exposure to light. After incubation for 6-h at 37 °C, fluorescence readings were acquired on a spectrofluorimeter (Fluoroskan Ascent, Thermo Fisher Scientific, Oceanside, CA, USA) with a 485 nm excitation wavelength and a 518 nm emission wavelength.
(§5) The IC50 values of ATR, DA, CF, and AV were established from the in vitro growth inhibition by nonlinear regression curve fit on a GraphPad Prism (GraphPad Software Inc., San Diego, CA, USA). […] The significant variations (p < 0.05) among group mean values on parasitemia and one-way ANOVA Tukey’s test in GraphPad Prism version 5.0 was used to analyze hematology profiles in mice infected with B. microti.

B. divergens = test: as above; format: cell-based; details: 96 h, 4 days culture, mean of triplicate experiments
Protocol: as §3, §4, §5

T. equi = test: as above; format: cell-based; details: 96 h, 4 days culture, mean of triplicate experiments
Protocol: as §3, §4, §5

B. bigemina = test: as above; format: cell-based; details: 96 h, 4 days culture, mean of triplicate experiments
Protocol: as §3, §4, §5

MDBK cells = test: Cytotoxicity assay (CCK-8 cell viability); format: cell-based, bovine
Protocol: as §1, §2

Structure (SMILES): CO[C@H]1/C=C\C=C(/C)C(=O)NC2=CC(=O)C(NCCN(C)C)=C(C[C@@H](C)C[C@H](OC)[C@H](O)[C@@H](C)/C=C(\C)[C@@H]1OC(N)=O)C2=O [17-DMAG]
- chemotherapeutic effect (B. microti): 89%

- IC50 (B. bovis): 8.24 ± 1.7 µM
- IC50 (B. divergens): 13.8 ± 4.3 µM
- IC50 (T. equi): 2.88 ± 0.9 µM
- IC50 (B. bigemina): 5.73 ± 1.9 µM
Structure (SMILES): CC(C)/N=c1\cc2n(-c3ccc(Cl)cc3)c3ccccc3nc-2cc1Nc1ccc(Cl)cc1 [CF, clofazimine]
- Selective Index NIH/3T3 (NIH/3T3 cells; EC50 NIH/3T3 / IC50 B. bigemina): ˃17.5
- Selective Index NIH/3T3 (NIH/3T3 cells; EC50 NIH/3T3 / IC50 B. bovis): ˃12.1
- Selective Index NIH/3T3 (NIH/3T3 cells; EC50 NIH/3T3 / IC50 B. caballi): ˃12.6
- Selective Index NIH/3T3 (NIH/3T3 cells; EC50 NIH/3T3 / IC50 B. divergens): ˃7.2
- Selective Index NIH/3T3 (NIH/3T3 cells; EC50 NIH/3T3 / IC50 T. equi): ˃34.7
- EC50 (NIH/3T3 cells; Mus musculus, NIH3T3, NIH/3T3 cells, 24 h, CCK-8, read-out: EC50 NIH/3T3): > 100 µM
- Selective Index HFFs (HFFs; EC50 HFFs / IC50 B. bigemina): ˃17.5
- Selective Index HFFs (HFFs; EC50 HFFs / IC50 B. bovis): ˃12.1
- Selective Index HFFs (HFFs; EC50 HFFs / IC50 B. caballi): ˃12.6
- Selective Index HFFs (HFFs; EC50 HFFs / IC50 B. divergens): ˃7.2
- Selective Index HFFs (HFFs; EC50 HFFs / IC50 T. equi): ˃34.7
- EC50 (HFFs; Homo sapiens, HFFs, 24 h, CCK-8): > 100 µM
- EC50 (MDBK cells; Bos taurus, MDBK cells, 24 h, CCK-8): 34.7 ± 3.4 µM
- Selective Index MDBK (MDBK cells; EC50 MDBK / IC50 B. bigemina): 6.1
- Selective Index MDBK (MDBK cells; EC50 MDBK / IC50 B. bovis): 4.2
- Selective Index MDBK (MDBK cells; EC50 MDBK / IC50 B. caballi): 4.4
- Selective Index MDBK (MDBK cells; EC50 MDBK / IC50 B. divergens): 2.5
- Selective Index MDBK (MDBK cells; EC50 MDBK / IC50 T. equi): 12.1

Structure (SMILES): C=CCS[S+]([O-])CC=C (stereo not drawn) [allicin]
- chemotherapeutic effect (B. microti): 58.3%

Structure (SMILES): O=c1oc2c(O)c(O)cc3c(=O)oc4c(O)c(O)cc1c4c23 [ellagic acid]
- chemotherapeutic effect (B. microti): 49%

Structure (SMILES): CCn1cc(C(=O)O)c(=O)c2cc(F)c(N3CCNCC3)nc21 [enoxacin]
- chemotherapeutic effect (B. microti): 34%

Structure (SMILES): COc1cc2c[n+](C)c3c4cc5c(cc4ccc3c2cc1OC)OCO5 [nitidine chloride]
- chemotherapeutic effect (B. microti): 91%

Structure (SMILES): CCn1cc(C(=O)O)c(=O)c2cc(F)c(N3CCNCC3)cc21 [norfloxacin]
- chemotherapeutic effect (B. microti): 31%

Structure (SMILES): CC1COc2c(N3CCN(C)CC3)c(F)cc3c(=O)c(C(=O)O)cn1c23 (stereo not drawn) [ofloxacin]
- chemotherapeutic effect (B. microti): 49%

Structure (SMILES): CC1=CC(=O)C(C(C)C)=CC1=O [thymoquinone]
- chemotherapeutic effect (B. microti): 37%
